Assay results: the Deep4Chem optical property database
“And” between values parts separate entries of the source, which are not always exact repeats. Identical values can stand only once. Blank lines part the entries; values can stand above or below the compound they belong to.

Experiment: solvent given as SMILES

SMILES: CCCCCCCCCCCCCCCCCCOC(=O)/C=C/C1=CC2=C(c3c(C)cc(C)cc3C)c3cccn3[B-](F)(F)[N+]2=C1
- absorption maximum (in ClCCl): 538 nm

SMILES: C1=C(c2ccc(-c3cccs3)s2)CCC1
- absorption maximum (in C1CCOC1): 345 nm
- absorption maximum (in CC#N): 342 nm
- absorption maximum (in CCCCCC): 341 nm
- absorption maximum (in CCO): 341 nm
- absorption maximum (in OCCOCCO): 347 nm
- absorption maximum (in c1ccncc1): 348 nm

SMILES: Nc1nc2ccc([N+](=O)[O-])cc2s1
- absorption maximum (in CC#N): 355 nm
- absorption maximum (in ClCCl): 346 nm

SMILES: Oc1ccc2ccccc2c1C1Nc2cccc3cccc(c23)N1
- absorption maximum (in CC#N): 334 nm
- absorption maximum (in CO): 333 nm
- absorption maximum (in CS(C)=O): 350 nm
- absorption maximum (in Cc1ccccc1): 337 nm

SMILES: CCOC(=O)c1cc(C(=O)O)nc2cc(OC)ccc12
- absorption maximum (in CCO): 349 nm

SMILES: CCN(CC)c1ccc(/C=N/C(C#N)=C(C#N)\N=C\c2ccc(N(CC)CC)cc2O)c(O)c1
- absorption maximum (in CC#N): 564 nm

SMILES: CN(C)c1ccc(C2=Nc3sc4ccccc4[n+]3[B-](F)(F)O2)cc1
- absorption maximum (in C1CCOC1): 424 nm
- absorption maximum (in CC#N): 421 nm
- absorption maximum (in CC(C)=O): 425 nm
- absorption maximum (in Cc1ccccc1): 421 nm
- absorption maximum (in ClCCl): 425 nm

SMILES: CN(C)c1ccc2cc3c(cc2c1)OCCN=C3
- absorption maximum (in C1CCOC1): 353 nm
- absorption maximum (in CC#N): 456 nm
- absorption maximum (in CC(C)O): 362 nm
- absorption maximum (in CCOC(C)=O): 354 nm
- absorption maximum (in CN(C)C=O): 362 nm
- absorption maximum (in CS(C)=O): 359 nm
- absorption maximum (in Cc1ccccc1): 355 nm
- absorption maximum (in ClCCl): 450 nm
- absorption maximum (in O): 451 nm

SMILES: Cn1nc(-c2ccccc2)c2nc3cc(Cl)ccc3nc21
- absorption maximum (in C1CCCCC1): 428 nm
- absorption maximum (in C1CCOC1): 429 nm
- absorption maximum (in CC#N): 427 nm

SMILES: CCN(CC)c1ccc2cc(-c3cn4ccccc4n3)c(=O)oc2c1
- absorption maximum (in C1CCOC1): 408 nm
- absorption maximum (in CC#N): 421 nm
- absorption maximum (in CCO): 424 nm
- absorption maximum (in CCOC(C)=O): 407 nm
- absorption maximum (in CN(C)C=O): 425 nm
- absorption maximum (in CO): 423 nm
- absorption maximum (in CS(C)=O): 428 nm
- absorption maximum (in Cc1ccccc1): 407 nm
- absorption maximum (in ClC(Cl)Cl): 425 nm
- absorption maximum (in ClCCl): 429 nm

SMILES: c1ccc(-c2ccc(-c3cc(-c4ccccn4)nc(-c4ccccn4)c3)cc2)cc1
- absorption maximum (in ClCCl): 291 nm

SMILES: c1ccc2c(c1)Oc1ccccc1N2c1ccc2c(c1)c1ccccc1n1ccnc21
- absorption maximum (in Cc1ccccc1): 376 nm

SMILES: CC1=[N+]2C(=C(c3ccc(N4CCOCC4)cc3)c3ccc(C)n3[B-]2(F)F)C=C1
- absorption maximum (in C1CCCCC1): 509 nm
- absorption maximum (in C1CCOC1): 507 nm
- absorption maximum (in CC#N): 504 nm and 505 nm
- absorption maximum (in CC(=O)C(C)(C)C): 506 nm
- absorption maximum (in CC(C)=O): 505 nm
- absorption maximum (in CCCCCC): 508 nm
- absorption maximum (in CCOC(C)=O): 506 nm
- absorption maximum (in CO): 505 nm
- absorption maximum (in Cc1ccccc1): 511 nm
- absorption maximum (in ClC(Cl)Cl): 511 nm

SMILES: O=C(O)c1cc2c(ccc3ccccc32)oc1=O
- absorption maximum (in C1COCCO1): 372 nm
- absorption maximum (in CC#N): 376 nm
- absorption maximum (in CCCCO): 372 nm
- absorption maximum (in CCO): 363 nm
- absorption maximum (in CO): 364 nm
- absorption maximum (in O): 376 nm

SMILES: CC(=O)c1nc(-c2ccc(C)cc2)oc1C
- absorption maximum (in CC#N): 271 nm
- absorption maximum (in CCCCCC): 272 nm
- absorption maximum (in CCO): 271 nm
- absorption maximum (in CCOC(C)=O): 273 nm
- absorption maximum (in CCOCC): 271 nm
- absorption maximum (in ClCCl): 271 nm

SMILES: COC(=O)C(C)NC(=O)CCNc1cccc2ccccc12 (stereo not given)
- absorption maximum (in CCO): 331 nm

SMILES: Cn1cccc1-c1ccc(C#N)cc1
- absorption maximum (in C1CCOC1): 326 nm
- absorption maximum (in CC#N): 322 nm
- absorption maximum (in CCCCCC): 317 nm
- absorption maximum (in CCCCOCCCC): 321 nm
- absorption maximum (in CCOCC): 321 nm

SMILES: COc1nnc(Cl)nn1
- absorption maximum (in ClCCl): 520 nm
- absorption maximum (in OCC(F)(F)F): 518 nm

SMILES: COc1ccc(-n2nc(C#N)c(N3CCC(N4CCCCC4)CC3)n2)cc1
- absorption maximum (in CC#N): 325 nm

SMILES: F[B-]1(F)n2c(c3ccccc3c2-c2ccccc2)C(c2ccccc2)=C2c3ccccc3C(c3ccccc3)=[N+]21
- absorption maximum (in ClCCl): 631 nm

SMILES: CN(C)c1ccc2c(C(=O)NCc3ccccc3)cc(C(=O)[O-])nc2c1
- absorption maximum (in CCO): 403 nm

SMILES: CCc1ccc(-n2c3ccccc3c3cc4c(cc32)c2ccccc2n4-c2ccc(CC)cc2)cc1
- absorption maximum (in ClC(Cl)Cl): 409 nm

SMILES: CCN(CC)c1ccc(C2=C3C(C)=CC(/C=C/c4ccc(OCCCN=[N+]=[N-])cc4)=[N+]3[B-](F)(F)n3c(C)cc(C)c32)cc1
- absorption maximum (in CO): 570 nm

SMILES: N#Cc1ccc2c(c1)CCc1nc(-c3ccc([N+](=O)[O-])cc3)c3c(c1-2)CCc1cc(C#N)ccc1-3
- absorption maximum (in C1CCOC1): 331 nm
- absorption maximum (in CC#N): 349 nm
- absorption maximum (in CCCCCC): 350 nm
- absorption maximum (in CCOC(C)=O): 329 nm
- absorption maximum (in CO): 333 nm
- absorption maximum (in CS(C)=O): 360 nm
- absorption maximum (in Cc1ccccc1): 343 nm
- absorption maximum (in ClCCl): 345 nm

SMILES: CC1=CC(C)=[N+]2C1=C(c1ccc(I)cc1)c1c(C)cc(C)n1[B-]2(Oc1ccc([N+](=O)[O-])cc1)Oc1ccc([N+](=O)[O-])cc1
- absorption maximum (in ClC(Cl)Cl): 505 nm

SMILES: CCC1=C(C)C2=Cc3cccn3[B-](F)(F)[N+]2=C1C
- absorption maximum (in C1CCCCC1): 512.5 nm
- absorption maximum (in CC(C)=O): 503.5 nm
- absorption maximum (in CCO): 505.5 nm
- absorption maximum (in CCOC(C)=O): 505 nm
- absorption maximum (in CO): 504.5 nm
- absorption maximum (in OCC(F)(F)F): 494.5 nm

SMILES: CN(C)c1ccc(/C=C/c2cnccn2)cc1
- absorption maximum (in ClCCl): 389 nm

SMILES: CN(C)c1ccc(C2=Nc3sc4cc(Cl)ccc4[n+]3[B-](F)(F)O2)cc1
- absorption maximum (in C1CCOC1): 430 nm
- absorption maximum (in CC#N): 426 nm
- absorption maximum (in CC(C)=O): 430 nm
- absorption maximum (in Cc1ccccc1): 427 nm
- absorption maximum (in ClCCl): 430 nm

SMILES: c1ccc(/C(=C(\c2ccccc2)c2cc(-c3ccc(-c4ccccc4)cc3)ccc2-c2ccc(-c3ccccc3)cc2)c2cc(-c3ccc(-c4ccccc4)cc3)ccc2-c2ccc(-c3ccccc3)cc2)cc1
- absorption maximum (in C1CCOC1): 302 nm

SMILES: COC(=O)C1=C(C(=O)OC)C2=C[C@H]3c4ccccc4[C@]2([Se]1)c1ccccc13
- absorption maximum (in ClCCl): 370 nm

SMILES: N#Cc1c(N2CCCCC2)cc(-c2ccc3ccc4cccc5ccc2c3c45)c2c1-c1ccccc1C2=O
- absorption maximum (in C1CCOC1): 393 nm

SMILES: CC1=[N+]2C(=C(c3c4ccccc4c(C)c4ccccc34)c3ccc(C)n3[B-]2(F)F)C=C1
- absorption maximum (in CC#N): 514 nm
- absorption maximum (in CCCCCC): 515 nm
- absorption maximum (in CCO): 515 nm
- absorption maximum (in CN(C)C=O): 517 nm
- absorption maximum (in Cc1ccccc1): 519 nm
- absorption maximum (in ClCCl): 517 nm

SMILES: FC(F)(F)c1cc2n(n1)[B-]1(c3ccccc3Oc3ccccc31)[n+]1ccc3ccccc3c1-2
- absorption maximum (in C1CCCCC1): 375 nm
- absorption maximum (in Cc1ccccc1): 378 nm
- absorption maximum (in ClCCl): 372 nm

SMILES: CCOC(=O)/C=C/C1=C(c2ccc(C)cc2)C2=Nc3c(-c4ccc(C)cc4)c(Br)c(-c4ccc(C)cc4)n3[B-](F)(F)[N+]2=C1c1ccc(C)cc1
- absorption maximum (in ClC(Cl)Cl): 666 nm

SMILES: COc1ccc(C(=O)/C=C2\C(=O)Nc3ccccc32)cc1
- absorption maximum (in C1COCCO1): 337 nm
- absorption maximum (in CC#N): 335 nm
- absorption maximum (in CC(C)(C)O): 345 nm
- absorption maximum (in CC(C)O): 345 nm
- absorption maximum (in CCCCO): 345 nm
- absorption maximum (in CCOC(C)=O): 339 nm
- absorption maximum (in CN(C)C=O): 344 nm
- absorption maximum (in CO): 343 nm
- absorption maximum (in ClCCl): 339 nm
- absorption maximum (in O): 347 nm

SMILES: CCCCCCCCC1(CCCCCCCC)c2cc(-c3ccc(C(=O)OC)cc3)ccc2-c2ccc(-c3ccc(C(=O)OC)cc3)cc21
- absorption maximum (in ClC(Cl)Cl): 341 nm

SMILES: CCOC(=O)c1cc2ccc3ccccc3c2c(C(=O)OCC)c1N
- absorption maximum (in Cc1ccccc1): 427 nm

Second part, the compound after the results:

- absorption maximum (in ClCCl): 405 nm
SMILES: c1ccc(B2Nc3cc4c(cc3-c3sccc32)NB(c2ccccc2)c2ccsc2-4)cc1

- absorption maximum (in ClC(Cl)Cl): 608 nm
SMILES: CN1C(=CC2=C([O-])C(=Cc3oc4ccccc4[n+]3C)C2=O)C(C)(C)c2ccccc21

- absorption maximum (in CC#N): 339 nm
- absorption maximum (in CN(C)C=O): 353 nm
- absorption maximum (in ClCCl): 344 nm
SMILES: CCN(CC)c1ccc(/C=N/CC/N=C/c2ccc(N(CC)CC)cc2O)c(O)c1

- absorption maximum (in CCO): 471 nm
SMILES: CN1c2cc3nc4cc(Cl)c(Cl)cc4nc3cc2N(C)C1(C)C

- absorption maximum (in C1CCOC1): 387 nm
SMILES: CC(C)(C)c1ccc2c(c1)c1cc(C(C)(C)C)cc3c1n2B1c2c-3cccc2-c2cc(C(C)(C)C)cc3c4cc(C(C)(C)C)ccc4n1c23

- absorption maximum (in C1CCCCC1): 395 nm
- absorption maximum (in CC#N): 398 nm
- absorption maximum (in CO): 396 nm
- absorption maximum (in ClCCl): 398 nm
SMILES: COc1c2ccccc2c(OC)c2c1c1ccc(F)cc1n2C

- absorption maximum (in ClCCl): 484 nm
SMILES: CN(C)c1ccc(C2=CC3=C(c4ccc([N+](=O)[O-])cc4)[C@H]4c5ccccc5[C@]3(S2)c2ccccc24)cc1

- absorption maximum (in C1CCCCC1): 309 nm
SMILES: C=Cc1ccc(OC)c(OC)c1

- absorption maximum (in O): 397 nm
SMILES: CC[n+]1c(-c2ccccc2)c2cc(NC(N)=[NH2+])ccc2c2ccc(NC(N)=[NH2+])cc21

- absorption maximum (in ClCCl): 357 nm
SMILES: Cc1cc(=O)cc(-c2ccc(-c3nc4ccccn4c3NC3CCCCC3)cc2)o1

- absorption maximum (in C1CCCCC1): 350 nm
- absorption maximum (in CC#N): 367 nm
- absorption maximum (in CCCCCCCCO): 373 nm
- absorption maximum (in CCCCCCO): 373 nm
- absorption maximum (in CCCCO): 374 nm
- absorption maximum (in CCCO): 376 nm
- absorption maximum (in CCO): 376 nm and 435 nm and 373 nm
- absorption maximum (in CCOC(C)=O): 361 nm
- absorption maximum (in OCC(O)CO): 384 nm
SMILES: CCN(CC)c1ccc2c(C)cc(=O)oc2c1

- absorption maximum (in CC#N): 344 nm
SMILES: COc1ccc(-n2nc(C#N)c(N3CCCCCC3)n2)cc1

- absorption maximum (in ClCCl): 457 nm
SMILES: COc1ccc2cc(C#CC3=C4CCc5ccccc5C4=[O+][B-](F)(F)O3)ccc2c1

- absorption maximum (in ClCCl): 526 nm
SMILES: COc1ccc(C2=C(c3ccc(OC)cc3)c3cccc4c5c(cc(c34)O2)=NC2C=C(Br)C(Br)=CC2N=5)cc1 (stereo not given)

- absorption maximum (in CCO): 471 nm
SMILES: CC1(C)Nc2cc3nc4cc(Cl)c(Cl)cc4nc3cc2N1

- absorption maximum (in ClC(Cl)Cl): 452 nm
SMILES: CCCCCCCCc1ccc(-c2ccc(-c3cc(-c4ccc(-c5ccc(CCCCCCCC)s5)c5nsnc45)c4ccc5c(-c6ccc(-c7ccc(CCCCCCCC)s7)c7nsnc67)cc(-c6ccc(-c7ccc(CCCCCCCC)s7)c7nsnc67)c6ccc3c4c65)c3nsnc23)s1

- absorption maximum (in CC#N): 521 nm
SMILES: CCCn1c2cccc3c2[c+]2c4c1cccc4n(CCC)c1cccc(c12)n3CCC
